Test results taken from ChEMBL document CHEMBL2034905, “Synthesis of benzimidazolyl-1,3,4-oxadiazol-2ylthio-N-phenyl (benzothiazolyl) acetamides as antibacterial, antifungal and antituberculosis agents” (Eur J Med Chem, 2012).
Converted amounts (≈) assume the structure as drawn.

Tests used:
[1] = tested on: Shigella flexneri; assay: Antibacterial activity against Shigella flexneri MTCC 1457 at 100 ug/disc by paper disc diffusion technique; type: functional; conditions: read-out: IZ
[2] = tested on: Pseudomonas aeruginosa; assay: Antibacterial activity against Pseudomonas aeruginosa MTCC 741 at 100 ug/disc by paper disc diffusion technique; type: functional; conditions: read-out: IZ
[3] = tested on: Aspergillus niger; assay: Antifungal activity against Aspergillus niger MTCC 282 by agar streak dilution method; type: functional
[4] = tested on: Proteus vulgaris; assay: Antibacterial activity against Proteus vulgaris MTCC 1771 at 100 ug/disc by paper disc diffusion technique; type: functional; conditions: read-out: IZ
[5] = tested on: Klebsiella pneumoniae; assay: Antibacterial activity against Klebsiella pneumoniae MTCC 109 at 100 ug/disc by paper disc diffusion technique; type: functional; conditions: read-out: IZ
[6] = tested on: Mycobacterium tuberculosis; assay: Antituberculosis activity against Mycobacterium tuberculosis H37Rv by Lowenstein-Jensen method; type: functional
[7] = tested on: Mycobacterium tuberculosis; assay: Antituberculosis activity against Mycobacterium tuberculosis H37Rv by BACTEC MGIT method; type: functional
[8] = tested on: Aspergillus clavatus; assay: Antifungal activity against Aspergillus clavatus MTCC 1323 at 100 ug/disc by paper disc diffusion technique; type: functional; conditions: read-out: IZ
[9] = tested on: Staphylococcus aureus; assay: Antibacterial activity against Staphylococcus aureus MTCC 96 at 100 ug/disc by paper disc diffusion technique; type: functional; conditions: read-out: IZ
[10] = tested on: Staphylococcus aureus; assay: Antibacterial activity against Staphylococcus aureus MTCC 96 by agar streak dilution method; type: functional
[11] = tested on: Aspergillus clavatus; assay: Antifungal activity against Aspergillus clavatus MTCC 1323 by agar streak dilution method; type: functional
[12] = tested on: Escherichia coli; assay: Antibacterial activity against Escherichia coli MTCC 739 by agar streak dilution method; type: functional
[13] = tested on: Shigella flexneri; assay: Antibacterial activity against Shigella flexneri MTCC 1457 by agar streak dilution method; type: functional
[14] = tested on: Aspergillus niger; assay: Antifungal activity against Aspergillus niger MTCC 282 at 100 ug/disc by paper disc diffusion technique; type: functional; conditions: read-out: IZ
[15] = tested on: Aspergillus fumigatus; assay: Antifungal activity against Aspergillus fumigatus MTCC 343 at 100 ug/disc by paper disc diffusion technique; type: functional; conditions: read-out: IZ
[16] = tested on: Candida albicans; assay: Antifungal activity against Candida albicans MTCC 183 at 100 ug/disc by paper disc diffusion technique; type: functional; conditions: read-out: IZ
[17] = tested on: Klebsiella pneumoniae; assay: Antibacterial activity against Klebsiella pneumoniae MTCC 109 by agar streak dilution method; type: functional
[18] = tested on: Mycobacterium tuberculosis; assay: Antituberculosis activity against Mycobacterium tuberculosis H37Rv at 6.25 ug/ml by Lowenstein-Jensen method; type: functional
[19] = tested on: Bacillus cereus; assay: Antibacterial activity against Bacillus cereus MTCC 430 by agar streak dilution method; type: functional
[20] = tested on: Aspergillus fumigatus; assay: Antifungal activity against Aspergillus fumigatus MTCC 343 by agar streak dilution method; type: functional
[21] = tested on: Salmonella typhi; assay: Antibacterial activity against Salmonella typhi MTCC 733 by agar streak dilution method; type: functional, Salmonella enterica subsp. enterica serovar Typhi; conditions: Salmonella enterica
[22] = tested on: Escherichia coli; assay: Antibacterial activity against Escherichia coli MTCC 739 at 100 ug/disc by paper disc diffusion technique; type: functional; conditions: read-out: IZ
[23] = tested on: Proteus vulgaris; assay: Antibacterial activity against Proteus vulgaris MTCC 1771 by agar streak dilution method; type: functional
[24] = tested on: Salmonella typhi; assay: Antibacterial activity against Salmonella typhi MTCC 733 at 100 ug/disc by paper disc diffusion technique; type: functional, Salmonella enterica subsp. enterica serovar Typhi; conditions: Salmonella enterica, read-out: IZ
[25] = tested on: Pseudomonas aeruginosa; assay: Antibacterial activity against Pseudomonas aeruginosa MTCC 741 by agar streak dilution method; type: functional
[26] = Lipophilicity, log P of the compound; type: physicochemical; conditions: octanol/water
[27] = tested on: Bacillus cereus; assay: Antibacterial activity against Bacillus cereus MTCC 430 at 100 ug/disc by paper disc diffusion technique; type: functional; conditions: read-out: IZ
[28] = tested on: Candida albicans; assay: Antifungal activity against Candida albicans MTCC 183 by agar streak dilution method; type: functional

SMILES	zone of inhibition at 100 µg/disc [1] [mm]	zone of inhibition at 100 µg/disc [2] [mm]	MIC [3] [µg/mL]	zone of inhibition at 100 µg/disc [4] [mm]	zone of inhibition at 100 µg/disc [5] [mm]	MIC [6] [µg/mL]	MIC [7] [µg/mL]	zone of inhibition at 100 µg/disc [8] [mm]	zone of inhibition at 100 µg/disc [9] [mm]	MIC [10] [µg/mL]	MIC [11] [µg/mL]	MIC [12] [µg/mL]	MIC [13] [µg/mL]	zone of inhibition at 100 µg/disc [14] [mm]	zone of inhibition at 100 µg/disc [15] [mm]	zone of inhibition at 100 µg/disc [16] [mm]	MIC [17] [µg/mL]	inhibition at 6.25 µg/mL [18] [%]	MIC [19] [µg/mL]	MIC [20] [µg/mL]	other results
Cc1ccc(NC(=O)CSc2nnc(Cn3cnc4ccccc43)o2)cc1	< 10	14	100 (≈ 264 µM)	14	< 10	100 (≈ 264 µM)	> 6.25	12	11	100 (≈ 264 µM)	100 (≈ 264 µM)	100 (≈ 264 µM)	100 (≈ 264 µM)	< 10	< 10	14	100 (≈ 264 µM)	95	100 (≈ 264 µM)	100 (≈ 264 µM)	MIC [21]: 100 µg/mL (≈ 264 µM); zone of inhibition at 100 µg/disc [22]: 14 mm; MIC [23]: 100 µg/mL (≈ 264 µM); zone of inhibition at 100 µg/disc [24]: 17 mm; MIC [25]: 100 µg/mL (≈ 264 µM); logP [26]: 2.98; zone of inhibition at 100 µg/disc [27]: 13 mm; MIC [28]: 100 µg/mL (≈ 264 µM)
CC(=O)Nc1ccc(NC(=O)CSc2nnc(Cn3cnc4ccccc43)o2)cc1	16	19	25 (≈ 59.2 µM)	20	13	100 (≈ 237 µM)	> 6.25	18	< 10	100 (≈ 237 µM)	100 (≈ 237 µM)	50 (≈ 118 µM)	100 (≈ 237 µM)	22	15	18	100 (≈ 237 µM)	95	100 (≈ 237 µM)	100 (≈ 237 µM)	MIC [21]: 100 µg/mL (≈ 237 µM); zone of inhibition at 100 µg/disc [22]: 20 mm; MIC [23]: 25 µg/mL (≈ 59.2 µM); zone of inhibition at 100 µg/disc [24]: < 10 mm; MIC [25]: 100 µg/mL (≈ 237 µM); zone of inhibition at 100 µg/disc [27]: 11 mm; MIC [28]: 100 µg/mL (≈ 237 µM)
O=C(CSc1nnc(Cn2cnc3ccccc32)o1)Nc1nc2ccccc2s1	13	12	100 (≈ 237 µM)	17	< 10	500 (≈ 1180 µM)	> 6.25	< 10	15	50 (≈ 118 µM)	100 (≈ 237 µM)	100 (≈ 237 µM)	100 (≈ 237 µM)	< 10	< 10	13	100 (≈ 237 µM)	94	100 (≈ 237 µM)	100 (≈ 237 µM)	MIC [21]: 100 µg/mL (≈ 237 µM); zone of inhibition at 100 µg/disc [22]: 15 mm; MIC [23]: 100 µg/mL (≈ 237 µM); zone of inhibition at 100 µg/disc [24]: < 10 mm; MIC [25]: 100 µg/mL (≈ 237 µM); logP [26]: 3.69; zone of inhibition at 100 µg/disc [27]: 14 mm; MIC [28]: 100 µg/mL (≈ 237 µM)
O=C(CSc1nnc(Cn2cnc3ccccc32)o1)Nc1nc2ccc(Cl)cc2s1	25	23	100 (≈ 219 µM)	20	20	62.5 (≈ 137 µM)	> 6.25	15	22	12.5 (≈ 27.4 µM)	100 (≈ 219 µM)	50 (≈ 109 µM)	6.25 (≈ 13.7 µM)	16	13	14	50 (≈ 109 µM)	97	6.25 (≈ 13.7 µM)	100 (≈ 219 µM)	MIC [21]: 50 µg/mL (≈ 109 µM); zone of inhibition at 100 µg/disc [22]: 20 mm; MIC [23]: 50 µg/mL (≈ 109 µM); zone of inhibition at 100 µg/disc [24]: 22 mm; MIC [25]: 25 µg/mL (≈ 54.7 µM); logP [26]: 4.25; zone of inhibition at 100 µg/disc [27]: 27 mm; MIC [28]: 100 µg/mL (≈ 219 µM)
